# Laboratory results reported in US12692238B2, “Substituted pyridazinone herbicides” (FMC CORPORATION, priority 2020, dated 2026).
# Key:
# Assay type in all cases: in vivo
# [1] = system: ryegrass, Italian (Italian ryegrass, Lolium multiflorum); assay: Test A postemergence, ryegrass, Italian; conditions: 10 days
# Method in brief: (§1)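 Visual injury ratings on a 0 to 100 scale (0 no effect, 100 complete control) were made 10 days after treatment, relative to untreated controls. Test chemicals in a surfactant-containing non-phytotoxic solvent were applied to soil at planting or to one- to two-leaf plants 2 to 10 cm tall.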
# [2] = system: barnyardgrass (Echinochloa crus-galli); assay: Test B flooded paddy test, barnyardgrass; conditions: 250 g ai/ha, Flood; visually evaluated after 10 to 14 days
# Method in brief: (§2)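 Plants grown to the 2-leaf stage were flooded to 3 cm above the soil, and test compounds were applied directly into the paddy water, which was held at that depth throughout. After 10 to 14 days in a greenhouse, injury was visually rated against controls on a 0–100 scale (0 no effect, 100 complete control).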
# kochia (Bassia scoparia) [3] = assay: Test A postemergence, kochia; conditions: 10 days
# Method in brief: as §1
# [4] = system: wheat (Triticum aestivum); assay: Test A postemergence, wheat; conditions: 10 days
# Method in brief: as §1
# [5] = system: oat, wild (wild oat, Avena fatua); assay: Test A postemergence, oat, wild; conditions: 10 days
# Excerpt: (§3) Seeds of plant species selected from barnyardgrass (Echinochloa crus-galli), blackgrass (Alopecurus myosuroides), corn (Zea mays), foxtail, giant (giant foxtail, Setaria faberi), foxtail, green (green foxtail, Setaria viridis), goosegrass (Eleusine indica), kochia (Bassia scoparia), oat, wild (wild oat, Avena fatua), palmer amaranth (pigweed, palmer, Amaranthus palmeri), redroot pigweed (Amaranthus retroflexus), ragweed (common ragweed, Ambrosia artemisiifolia), ryegrass, Italian (Italian ryegrass, Lolium multiflorum), and soybean (Glycine max) were planted into a blend of loam soil and sand and treated preemergence with a directed soil spray using test chemicals formulated in a non-phytotoxic solvent mixture which included a surfactant.
# (§4) At the same time, plants selected from these crop and weed species and also wheat (Triticum aestivum), galium (catchweed bedstraw, Galium aparine) and horseweed (Erigeron canadensis) were planted in pots containing the same blend of loam soil and sand and treated with postemergence applications of test chemicals formulated in the same manner. Plants ranged in height from 2 to 10 cm and were in the one- to two-leaf stage for the postemergence treatment. Treated plants and untreated controls were maintained in a greenhouse for 10 days, after which time all treated plants were compared to untreated controls and visually evaluated for injury. Plant response ratings, summarized in Table A, are based on a 0 to 100 scale where 0 is no effect and 100 is complete control. A dash (-) response means no test result.
# [6] = system: ducksalad (Heteranthera limosa); assay: Test B flooded paddy test, ducksalad; conditions: 250 g ai/ha, Flood; visually evaluated after 10 to 14 days
# Method in brief: as §2
# [7] = system: blackgrass (Alopecurus myosuroides); assay: Test A postemergence, blackgrass; conditions: 10 days
# Method in brief: as §1
# [8] = system: goosegrass (Eleusine indica); assay: Test A postemergence, goosegrass; conditions: 10 days
# Excerpt: as §3, §4
# [9] = system: palmer amaranth (pigweed, palmer, Amaranthus palmeri); assay: Test A postemergence, palmer amaranth; conditions: 10 days
# Excerpt: as §3, §4
# [10] = system: goosegrass (Eleusine indica); assay: Test A preemergence, goosegrass; conditions: 0 to 100 scale, 10 days
# Excerpt: as §3, §4
# corn (Zea mays) [11] = assay: Test A postemergence, corn; conditions: 10 days
# Method in brief: as §1
# [12] = system: horseweed (Erigeron canadensis); assay: Test A postemergence, horseweed; conditions: 10 days
# Excerpt: as §3, §4
# soybean (Glycine max) [13] = assay: Test A postemergence, soybean; conditions: 10 days
# Excerpt: as §3, §4
# kochia (Bassia scoparia) [14] = assay: Test A preemergence, kochia; conditions: 0 to 100 scale, 10 days
# Method in brief: as §1
# [15] = system: foxtail, giant (giant foxtail, Setaria faberi); assay: Test A postemergence, foxtail, giant; conditions: 10 days
# Excerpt: as §3, §4
# [16] = system: blackgrass (Alopecurus myosuroides); assay: Test A preemergence, blackgrass; conditions: 0 to 100 scale, 10 days
# Excerpt: as §3, §4
# [17] = system: foxtail, giant (giant foxtail, Setaria faberi); assay: Test A preemergence, foxtail, giant; conditions: 0 to 100 scale, 10 days
# Excerpt: as §3, §4
# [18] = system: ryegrass, Italian (Italian ryegrass, Lolium multiflorum); assay: Test A preemergence, ryegrass, Italian; conditions: 0 to 100 scale, 10 days
# Method in brief: as §1
# [19] = system: galium (catchweed bedstraw, Galium aparine); assay: Test A postemergence, galium; conditions: 10 days
# Method in brief: as §1
# [20] = system: palmer amaranth (pigweed, palmer, Amaranthus palmeri); assay: Test A preemergence, palmer amaranth; conditions: 0 to 100 scale, 10 days
# Excerpt: as §3, §4
# soybean (Glycine max) [21] = assay: Test A preemergence, soybean; conditions: 0 to 100 scale, 10 days
# Excerpt: as §3, §4
# [22] = system: wheat (Triticum aestivum); assay: Test A preemergence, wheat; conditions: 125 g ai/ha, 0 to 100 scale, 10 days
# [23] = system: sedge, umbrella (small-flower umbrella sedge, Cyperus difformis); assay: Test B flooded paddy test, sedge, umbrella; conditions: 250 g ai/ha, Flood; visually evaluated after 10 to 14 days
# Method in brief: as §2
# [24] = system: oat, wild (wild oat, Avena fatua); assay: Test A preemergence, oat, wild; conditions: 0 to 100 scale, 10 days
# Excerpt: as §3, §4
# rice (Oryza sativa) = assay: Test B flooded paddy test, rice; conditions: 250 g ai/ha, Flood; visually evaluated after 10 to 14 days
# Method in brief: as §2
# [25] = system: ragweed (common ragweed, Ambrosia artemisiifolia); assay: Test A preemergence, ragweed; conditions: 0 to 100 scale, 10 days
# Method in brief: as §1
# [26] = system: ragweed (common ragweed, Ambrosia artemisiifolia); assay: Test A postemergence, ragweed; conditions: 10 days
# Method in brief: as §1
# corn (Zea mays) [27] = assay: Test A preemergence, corn; conditions: 0 to 100 scale, 10 days
# Excerpt: as §3, §4
# [28] = 31 g ai/ha, postemergence, 0 to 100 scale (0 no effect, 100 complete control)
# [29] = Postemergence, 125 g ai/ha, 0 to 100 scale
compound,measurement,setting,value
Cc1ccc2cc3ccc(F)cc3c(-c3c(OCOC(=O)N(C)C)c(C)nn(C)c3=O)c2c1 [Compound 16],"Plant response rating, Ryegrass, Italian",[1]; [28],0
same,"Plant response rating, Ryegrass, Italian",[1]; [29],0
same,"Plant response rating, Barnyardgrass (0 to 100 scale where 0 is no effect and 100 is complete control)",[2],0
same,"Plant response rating, Kochia",kochia (Bassia scoparia) [3]; [28],60
same,"Plant response rating, Kochia",kochia (Bassia scoparia) [3]; [29],80
same,"Plant response rating, Wheat",[4]; [28],0
same,"Plant response rating, Wheat",[4]; [29],0
same,"Plant response rating, Oat, Wild",[5]; [28],0
same,"Plant response rating, Oat, Wild",[5]; [29],0
same,"Plant response rating, Ducksalad (0 to 100 scale where 0 is no effect and 100 is complete control)",[6],0
same,"Plant response rating, Blackgrass",[7]; [28],0
same,"Plant response rating, Blackgrass",[7]; [29],0
same,"Plant response rating, Goosegrass",[8]; [28],0
same,"Plant response rating, Goosegrass",[8]; [29],0
same,"Plant response rating, Pigweed, Palmer",[9]; [28],100
same,"Plant response rating, Pigweed, Palmer",[9]; [29],60
same,"Plant response rating, Goosegrass",[10]; 31 g ai/ha,0
same,"Plant response rating, Goosegrass",[10]; 125 g ai/ha,0
same,"Plant response rating, Corn",corn (Zea mays) [11]; [28],0
same,"Plant response rating, Corn",corn (Zea mays) [11]; [29],0
same,"Plant response rating, Horseweed",[12]; [28],10
same,"Plant response rating, Horseweed",[12]; [29],10
same,"Plant response rating, Soybean",soybean (Glycine max) [13]; [28],10
same,"Plant response rating, Soybean",soybean (Glycine max) [13]; [29],30
same,"Plant response rating, Kochia",kochia (Bassia scoparia) [14]; 31 g ai/ha,0
same,"Plant response rating, Kochia",kochia (Bassia scoparia) [14]; 125 g ai/ha,0
same,"Plant response rating, Foxtail, Giant",[15]; [28],0
same,"Plant response rating, Foxtail, Giant",[15]; [29],20
same,"Plant response rating, Blackgrass",[16]; 31 g ai/ha,0
same,"Plant response rating, Blackgrass",[16]; 125 g ai/ha,0
same,"Plant response rating, Foxtail, Giant",[17]; 31 g ai/ha,0
same,"Plant response rating, Foxtail, Giant",[17]; 125 g ai/ha,0
same,"Plant response rating, Ryegrass, Italian",[18]; 31 g ai/ha,0
same,"Plant response rating, Ryegrass, Italian",[18]; 125 g ai/ha,0
same,"Plant response rating, Galium",[19]; [28],0
same,"Plant response rating, Galium",[19]; [29],50
same,"Plant response rating, Pigweed, Palmer",[20]; 31 g ai/ha,10
same,"Plant response rating, Pigweed, Palmer",[20]; 125 g ai/ha,0
same,"Plant response rating, Soybean",soybean (Glycine max) [21]; 31 g ai/ha,0
same,"Plant response rating, Soybean",soybean (Glycine max) [21]; 125 g ai/ha,0
same,"Plant response rating, Wheat",[22],0
same,"Plant response rating, Sedge, Umbrella (0 to 100 scale where 0 is no effect and 100 is complete control)",[23],0
same,"Plant response rating, Oat, Wild",[24]; 31 g ai/ha,0
same,"Plant response rating, Oat, Wild",[24]; 125 g ai/ha,0
same,"Plant response rating, Rice (0 to 100 scale where 0 is no effect and 100 is complete control)",rice (Oryza sativa),0
same,"Plant response rating, Ragweed",[25]; 31 g ai/ha,0
same,"Plant response rating, Ragweed",[25]; 125 g ai/ha,0
same,"Plant response rating, Ragweed",[26]; [28],10
same,"Plant response rating, Ragweed",[26]; [29],30
same,"Plant response rating, Corn",corn (Zea mays) [27]; 31 g ai/ha,0
same,"Plant response rating, Corn",corn (Zea mays) [27]; 125 g ai/ha,0
